Drawing on US9938269B2, “Inhibitor compounds of phosphodiesterase type 10A” (ABBVIE INC., priority 2011, dated 2018), this text covers IC50 for 36 compounds.

Each structure is given as a SMILES string. Structures can show the parent of a compound that is named as a salt.

By IC50 is commonly meant the concentration that gives 50% inhibition.

The target of this test is T1, PDE10A (human) (Homo sapiens, UniProt Q9Y233).
T1 construct: purchased BPS Bioscience
T1 sequence (Q9Y233 whole entry): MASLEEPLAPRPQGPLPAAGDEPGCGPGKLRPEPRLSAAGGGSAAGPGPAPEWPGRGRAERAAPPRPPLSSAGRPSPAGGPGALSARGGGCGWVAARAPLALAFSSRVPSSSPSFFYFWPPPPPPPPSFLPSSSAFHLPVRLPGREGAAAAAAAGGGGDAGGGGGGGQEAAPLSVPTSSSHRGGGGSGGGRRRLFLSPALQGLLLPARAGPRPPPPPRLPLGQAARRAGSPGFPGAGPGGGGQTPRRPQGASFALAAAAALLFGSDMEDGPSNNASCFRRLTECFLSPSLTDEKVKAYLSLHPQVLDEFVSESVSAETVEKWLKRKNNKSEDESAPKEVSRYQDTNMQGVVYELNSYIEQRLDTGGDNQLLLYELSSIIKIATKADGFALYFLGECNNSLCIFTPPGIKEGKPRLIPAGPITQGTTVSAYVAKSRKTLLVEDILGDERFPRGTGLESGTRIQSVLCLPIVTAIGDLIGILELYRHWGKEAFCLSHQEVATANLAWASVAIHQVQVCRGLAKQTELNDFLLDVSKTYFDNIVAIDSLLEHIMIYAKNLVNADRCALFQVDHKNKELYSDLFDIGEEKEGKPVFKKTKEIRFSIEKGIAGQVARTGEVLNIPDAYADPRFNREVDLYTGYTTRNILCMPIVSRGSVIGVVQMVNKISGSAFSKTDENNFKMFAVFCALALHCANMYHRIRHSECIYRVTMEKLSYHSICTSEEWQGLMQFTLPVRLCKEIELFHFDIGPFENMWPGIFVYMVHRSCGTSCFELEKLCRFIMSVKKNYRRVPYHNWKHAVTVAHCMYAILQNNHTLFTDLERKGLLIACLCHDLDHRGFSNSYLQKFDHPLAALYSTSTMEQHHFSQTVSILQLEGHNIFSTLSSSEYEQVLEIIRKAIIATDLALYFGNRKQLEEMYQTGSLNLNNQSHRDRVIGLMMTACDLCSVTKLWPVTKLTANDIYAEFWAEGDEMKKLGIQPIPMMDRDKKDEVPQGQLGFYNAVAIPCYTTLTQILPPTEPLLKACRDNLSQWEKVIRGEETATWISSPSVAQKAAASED
The test can be described thus: Measurement of PDE activity (HTRF cAMP kit), human PDE10A. In kind it is biochemical. The conditions noted are these: PDE enzymatic reaction, substrate 20 nM for PDE10, 60 minutes at 29 C. The protocol:
The recombinant PDE proteins are used in in vitro enzymatic reaction for measurement of PDE activity. These recombinant proteins, including PDE10A (human, rat and mouse PDE10) and isoforms of PDEs 1, 3, 4, and 5, were purchased from commercial vendor BPS Bioscience. The enzymatic activity of PDEs was determined by cAMP measurement kit from CisBio (IBA) using HTRF technology.
The PDE enzymatic reaction was carried out in assay buffer (20 mM Tris-HCl pH7.5, 10 mM MgCl2, 0.1% bovine serum albumin) containing enzyme and substrate. The PDE enzymes concentration ranged from 10 pM-250 pM, depending on each enzyme's specific activity. The substrate cyclic nucleotide (cAMP or cGMP) concentration used in the assay was 20 nM for PDE10, and 100 nM for other PDEs. The inhibitory effect of compound was determined by incubating various concentration of inhibitor in the enzymatic assay. Typically, compound was serial diluted in DMSO then further diluted in assay buffer. Next, the compound at varying concentration was mixed with PDE enzyme. The reaction was initiated by addition of cyclic nucleotide substrate, and incubated for 60 minutes at 29 C. The reaction was stopped by addition of lysis buffer from assay kit. The cAMP-d2 and anti-cAMP cryptate in the lysis buffer detected the level of cAMP left from the PDE hydrolysis reaction. The PDE activity is reversely correlated with the amount of cAMP left in the reaction and can be converted to the percent activity of an uninhibited control (100%). Thus, IC50 value of inhibitor can be obtained by plotting inhibitor concentration against PDE activity at that concentration.
A general note: In TR-FRET formats the signal depends on donor and acceptor labels being close together.
Compound `O=C1c2c(cccc2-c2ccnc(Cl)c2)CN1CCc1ccc2ccccc2n1` [Example 171, 7-(2-Chloro-pyridin-4-yl)-2-(2-quinolin-2-yl-ethyl)-2,3-dihydro-isoindol-1-one trifluoroacetate] showed an IC50 of 100 to 200 nM.

`Cc1ccsc1-c1cccc2c1CN(CCc1ccc3ccccc3n1)C2=O` [Example 351, 4-(3-Methyl-thiophen-2-yl)-2-(2-quinolin-2-yl-ethyl)-2,3-dihydro-isoindol-1-one] returned an IC50 of 200 to 500 nM.

Compound `O=C1c2c(cccc2-c2ccc(F)c(F)c2)CN1CCc1ccc2ccccc2n1` [Example 33, 7-(3,4-Difluoro-phenyl)-2-(2-quinolin-2-yl-ethyl)-2,3-dihydro-isoindol-1-one] came in with an IC50 of 200 to 500 nM.

`O=C1c2c(-c3ccoc3)ccnc2CN1CCc1ccc2ccccc2n1` [Example 331, 4-Furan-3-yl-6-(2-quinolin-2-yl-ethyl)-6,7-dihydro-pyrrolo[3,4-b]pyridin-5-one] returned an IC50 of less than 100 nM.

Compound `O=C1c2c(cccc2-c2cccc(F)c2)CN1CCc1ccc2ccccc2n1` [Example 27, 7-(3-Fluoro-phenyl)-2-(2-quinolin-2-yl-ethyl)-2,3-dihydro-isoindol-1-one] came in with an IC50 of 100 to 200 nM.

`Cc1cc(-c2cccc3c2C(=O)N(CCc2ccc4ccccc4n2)C3)ccn1` [Example 65, 7-(2-Methyl-pyridin-4-yl)-2-(2-quinolin-2-yl-ethyl)-2,3-dihydro-isoindol-1-one] registered an IC50 of less than 100 nM.

`O=C1c2c(cccc2-c2ccc3c(c2)OCO3)CN1CCc1ccc2ccccc2n1` [Example 34, 7-Benzo[1,3]dioxol-5-yl-2-(2-quinolin-2-yl-ethyl)-2,3-dihydro-isoindol-1-one]: the IC50 lay within 100 to 200 nM.

In turn, `O=C1c2c(cccc2-c2ccoc2)CN1CCc1ccc2ccccc2n1` [Example 46, 7-Furan-3-yl-2-(2-quinolin-2-yl-ethyl)-2,3-dihydro-isoindol-1-one] registered an IC50 of less than 100 nM.

In turn, `O=C1c2c(cccc2-c2ccncc2)CN1CCc1ccc2ccccc2n1` [Example 5, 7-Pyridin-4-yl-2-(2-quinolin-2-yl-ethyl)-2,3-dihydro-isoindol-1-one] displayed an IC50 of less than 100 nM.

For the compound `CN1CCN(S(=O)(=O)c2cccc3c2CN(c2cccc4c2CN(CCc2ccc5ccccc5n2)C4=O)CC3)CC1` [Example 321, 4-[8-(4-Methyl-piperazine-1-sulfonyl)-3,4-dihydro-1H-isoquinolin-2-yl]-2-(2-quinolin-2-yl-ethyl)-2,3-dihydro-isoindol-1-one], the IC50 fell in the range of 200 to 500 nM.

`O=C1c2c(cccc2-c2cccc(F)c2F)CN1CCc1ccc2ccccc2n1` [Example 50, 7-(2,3-Difluoro-phenyl)-2-(2-quinolin-2-yl-ethyl)-2,3-dihydro-isoindol-1-one] yielded an IC50 of 200 to 500 nM.

With `COc1cnccc1-c1cccc2c1C(=O)N(CCc1ccc3ccccc3n1)C2` [Example 169, 7-(3-Methoxy-pyridin-4-yl)-2-(2-quinolin-2-yl-ethyl)-2,3-dihydro-isoindol-1-one trifluoroacetate], the IC50 fell in the range of 100 to 200 nM.

Consider `O=C1c2cccc(N3CCNCC3)c2CN1CCc1ccc2ccccc2n1` [Example 141, 4-piperazin-1-yl-2-(2-quinolin-2-yl-ethyl)-2,3-dihydro-isoindol-1-one], for which the IC50 is 200 to 500 nM.

For `O=C1c2c(cccc2-c2ccc3[nH]ncc3c2)CN1CCc1ccc2ccccc2n1` [Example 93, 7-(1H-Indazol-5-yl)-2-(2-quinolin-2-yl-ethyl)-2,3-dihydro-isoindol-1-one], the IC50 was in the range of 200 to 500 nM.

The compound `O=C1c2c(cccc2N2CCSCC2)CN1CCc1ccc2ccccc2n1` [Example 150, 2-(2-Quinolin-2-yl-ethyl)-7-thiomorpholin-4-yl-2,3-dihydro-isoindol-1-one] returned an IC50 of less than 100 nM.

For `Cn1ccc(-c2cccc3c2CN(CCc2ccc4ccccc4n2)C3=O)c1` [Example 352, 4-(1-Methyl-1H-pyrrol-3-yl)-2-(2-quinolin-2-yl-ethyl)-2,3-dihydro-isoindol-1-one], the IC50 lay within 100 to 200 nM.

`Cn1c(CCN2Cc3cccc(-c4ccc(F)cc4)c3C2=O)nc2ccccc21` [Example 211, 7-(4-Fluoro-phenyl)-2-[2-(1-methyl-1H-benzoimidazol-2-yl)-ethyl]-2,3-dihydro-isoindol-1-one trifluoroacetate] yielded an IC50 of 200 to 500 nM.

Consider `CC1(C)c2cccc(-c3ccncc3)c2C(=O)N1CCc1ccc2ccccc2n1` [Example 6, 3,3-Dimethyl-7-pyridin-4-yl-2-(2-quinolin-2-yl-ethyl)-2,3-dihydro-isoindol-1-one], for which the IC50 lay in the range of 100 to 200 nM.

`O=C1c2cccc(-c3cn[nH]c3)c2CN1CCc1ccc2ccccc2n1` [Example 225, 4-(1H-Pyrazol-4-yl)-2-(2-quinolin-2-yl-ethyl)-2,3-dihydro-isoindol-1-one] showed an IC50 of less than 100 nM.

Regarding `O=C1c2c(cccc2-c2ccsc2)CN1CCc1ccc2ccccc2n1` [Example 25, 2-(2-Quinolin-2-yl-ethyl)-7-thiophen-3-yl-2,3-dihydro-isoindol-1-one], the IC50 lay within 100 to 200 nM.

As to `Cc1noc(C)c1-c1cccc2c1CN(CCc1ccc3ccccc3n1)C2=O` [Example 349, 4-(3,5-Dimethyl-isoxazol-4-yl)-2-(2-quinolin-2-yl-ethyl)-2,3-dihydro-isoindol-1-one], the IC50 was in the range of 200 to 500 nM.

In the case of `Cc1ccc2c(c1)nc(CCN1Cc3cccc(-c4ccncc4)c3C1=O)n2C` [Example 301, 2-[2-(1,5-Dimethyl-1H-benzoimidazol-2-yl)-ethyl]-7-pyridin-4-yl-2,3-dihydro-isoindol-1-one trifluoroacetate], the IC50 was less than 100 nM.

As to `O=C1c2c(cccc2-c2nccs2)CN1CCc1ccc2ccccc2n1` [Example 82, 2-(2-Quinolin-2-yl-ethyl)-7-thiazol-2-yl-2,3-dihydro-isoindol-1-one], the IC50 is 200 to 500 nM.

Regarding `O=C1c2cccc(-c3ccc(F)cc3)c2CN1CCc1ccc2ccccc2n1` [Example 212, 4-(4-Fluoro-phenyl)-2-(2-quinolin-2-yl-ethyl)-2,3-dihydro-isoindol-1-one trifluoroacetate], the IC50 lay in the range of 200 to 500 nM.

In the case of `COc1ccc(-c2cccc3c2C(=O)N(CCc2ccc4ccccc4n2)C3)cc1F` [Example 32, 7-(3-Fluoro-4-methoxy-phenyl)-2-(2-quinolin-2-yl-ethyl)-2,3-dihydro-isoindol-1-one], the IC50 was 200 to 500 nM.

Turning to `O=C1c2c(N3CCC(F)(F)CC3)ccnc2CN1CCc1ccc2ccccc2n1` [Example 258, 4-(4,4-Difluoro-piperidin-1-yl)-6-(2-quinolin-2-yl-ethyl)-6,7-dihydro-pyrrolo[3,4-b]pyridin-5-one], the IC50 was less than 100 nM.

In turn, `CN(C)c1ncc(-c2cccc3c2CN(CCc2ccc4ccccc4n2)C3=O)cn1` [Example 341, 4-(2-Dimethylamino-pyrimidin-5-yl)-2-(2-quinolin-2-yl-ethyl)-2,3-dihydro-isoindol-1-one] yielded an IC50 of 100 to 200 nM.

Regarding `O=C1c2c(-c3ccsc3)ccnc2CN1CCc1ccc2ccccc2n1` [Example 330, 6-(2-Quinolin-2-yl-ethyl)-4-thiophen-3-yl-6,7-dihydro-pyrrolo[3,4-b]pyridin-5-one], the IC50 was less than 100 nM.

For `O=C1c2c(cccc2-c2cc[nH]n2)CN1CCc1ccc2ccccc2n1` [Example 53, 7-(1H-Pyrazol-3-yl)-2-(2-quinolin-2-yl-ethyl)-2,3-dihydro-isoindol-1-one], the IC50 fell in the range of 100 to 200 nM.

`O=C1c2c(N3CC4COCC4C3)ccnc2CN1CCc1ccc2ccccc2n1` (stereo not drawn) [Example 260, 6-(2-Quinolin-2-yl-ethyl)-4-(tetrahydro-furo[3,4-c]pyrrol-5-yl)-6,7-dihydro-pyrrolo[3,4-b]pyridin-5-one] had an IC50 of less than 100 nM.

In turn, `O=C1c2c(-c3cn[nH]c3)ccc(F)c2CN1CCc1ccc2ccccc2n1` [compound 442, 4-Fluoro-7-(1H-pyrazol-4-yl)-2-[2-(2-quinolyl)ethyl]isoindolin-1-one trifluoroacetate] displayed an IC50 of less than 100 nM.

Regarding `O=C1c2c(cccc2-c2ccc(F)cn2)CN1CCc1ccc2ccccc2n1` [Example 88, 7-(5-Fluoro-pyridin-2-yl)-2-(2-quinolin-2-yl-ethyl)-2,3-dihydro-isoindol-1-one], the IC50 was in the range of 200 to 500 nM.

With `O=C1c2cccc(-c3ccoc3)c2CN1CCc1ccc2ccccc2n1` [Example 346, 4-Furan-3-yl-2-(2-quinolin-2-yl-ethyl)-2,3-dihydro-isoindol-1-one], the IC50 was less than 100 nM.

Regarding `O=C1c2c(cccc2-c2cccnc2)CN1CCc1ccc2ccccc2n1` [Example 30, 7-Pyridin-3-yl-2-(2-quinolin-2-yl-ethyl)-2,3-dihydro-isoindol-1-one], the IC50 was less than 100 nM.

Compound `COc1ncc(-c2cccc3c2C(=O)N(CCc2ccc4ccccc4n2)C3)cn1` [Example 61, 7-(2-Methoxy-pyrimidin-5-yl)-2-(2-quinolin-2-yl-ethyl)-2,3-dihydro-isoindol-1-one] came in with an IC50 of 100 to 200 nM.

`O=c1c2c(-c3ccncc3)cccc2on1CCc1ccc2ccccc2n1` [Example 18, 4-Pyridin-4-yl-2-(2-quinolin-2-yl-ethyl)-benzo[d]isoxazol-3-one]: the IC50 was less than 100 nM.
